Test results as given in ChEMBL document CHEMBL1649206, “Emerging Klebsiella pneumoniae isolates coproducing KPC-2 and VIM-1 carbapenemases” (2009).
Converted amounts (≈) assume the structure as drawn.

What was measured:
Klebsiella pneumoniae [1] = assay: Antimicrobial activity against Klebsiella pneumoniae isolate H-1406 expressing VIM-1 and KPC-2 genes by microdilution method; type: functional
Klebsiella pneumoniae [2] = assay: Antimicrobial activity against Klebsiella pneumoniae isolate A-1797 expressing VIM-1 and KPC-2 genes by microdilution method; type: functional
Klebsiella pneumoniae [3] = assay: Antimicrobial activity against Klebsiella pneumoniae isolate T-1780 expressing VIM-1 and KPC-2 genes by microdilution method; type: functional
Klebsiella pneumoniae [4] = assay: Antimicrobial activity against Klebsiella pneumoniae isolate A-1760 expressing VIM-1 and KPC-2 genes by microdilution method; type: functional
Klebsiella pneumoniae [5] = assay: Antimicrobial activity against Klebsiella pneumoniae isolate T-1504 expressing VIM-1 and KPC-2 genes by microdilution method; type: functional
[6] = target: Metallo-beta-lactamase (Klebsiella pneumoniae) (UniProt Q5GN09); assay: Activity of VIM-1 in Klebsiella pneumoniae isolate H-1406
[7] = target: Metallo-beta-lactamase (Klebsiella pneumoniae) (UniProt Q5GN09); assay: Activity of VIM-1 in Klebsiella pneumoniae isolate A-1797
[8] = target: Metallo-beta-lactamase (Klebsiella pneumoniae) (UniProt Q5GN09); assay: Activity of VIM-1 in Klebsiella pneumoniae isolate T-1780
[9] = target: Metallo-beta-lactamase (Klebsiella pneumoniae) (UniProt Q5GN09); assay: Activity of VIM-1 in Klebsiella pneumoniae isolate A-1760
[10] = target: Carbapenem-hydrolyzing beta-lactamase KPC (Klebsiella pneumoniae) (UniProt Q9F663); assay: Activity of KPC-2 in Klebsiella pneumoniae isolate T-1504
Chain of Carbapenem-hydrolyzing beta-lactamase KPC (Klebsiella pneumoniae) (Q9F663 whole entry): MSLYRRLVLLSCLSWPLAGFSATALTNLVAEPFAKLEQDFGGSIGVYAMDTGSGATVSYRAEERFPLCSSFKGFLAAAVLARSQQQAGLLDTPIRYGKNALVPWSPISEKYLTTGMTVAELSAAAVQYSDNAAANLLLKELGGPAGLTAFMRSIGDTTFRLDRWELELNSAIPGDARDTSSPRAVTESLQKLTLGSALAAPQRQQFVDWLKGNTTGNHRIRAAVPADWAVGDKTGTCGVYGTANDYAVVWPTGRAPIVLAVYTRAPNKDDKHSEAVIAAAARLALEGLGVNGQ

[11] = target: Carbapenem-hydrolyzing beta-lactamase KPC (Klebsiella pneumoniae) (UniProt Q9F663); assay: Activity of KPC-2 in Klebsiella pneumoniae isolate H-1406
[12] = target: Carbapenem-hydrolyzing beta-lactamase KPC (Klebsiella pneumoniae) (UniProt Q9F663); assay: Activity of KPC-2 in Klebsiella pneumoniae isolate T-1780
[13] = target: Metallo-beta-lactamase (Klebsiella pneumoniae) (UniProt Q5GN09); assay: Activity of VIM-1 in Klebsiella pneumoniae isolate H-1406 assessed as compound hydrolysis in presence of EDTA; design: scale not given: the % may be the effect or the level left
[14] = target: Metallo-beta-lactamase (Klebsiella pneumoniae) (UniProt Q5GN09); assay: Activity of VIM-1 in Klebsiella pneumoniae isolate A-1797 assessed as compound hydrolysis in presence of EDTA; design: scale not given: the % may be the effect or the level left
[15] = target: Metallo-beta-lactamase (Klebsiella pneumoniae) (UniProt Q5GN09); assay: Activity of VIM-1 in Klebsiella pneumoniae isolate T-1780 assessed as compound hydrolysis in presence of EDTA; design: scale not given: the % may be the effect or the level left
[16] = target: Metallo-beta-lactamase (Klebsiella pneumoniae) (UniProt Q5GN09); assay: Activity of VIM-1 in Klebsiella pneumoniae isolate A-1760 assessed as compound hydrolysis in presence of EDTA; design: scale not given: the % may be the effect or the level left
[17] = target: Carbapenem-hydrolyzing beta-lactamase KPC (Klebsiella pneumoniae) (UniProt Q9F663); assay: Activity of KPC-2 in Klebsiella pneumoniae isolate T-1504 assessed as compound hydrolysis in presence of EDTA; design: scale not given: the % may be the effect or the level left
[18] = target: Carbapenem-hydrolyzing beta-lactamase KPC (Klebsiella pneumoniae) (UniProt Q9F663); assay: Activity of KPC-2 in Klebsiella pneumoniae isolate H-1406 assessed as compound hydrolysis in presence of EDTA; design: scale not given: the % may be the effect or the level left
[19] = target: Carbapenem-hydrolyzing beta-lactamase KPC (Klebsiella pneumoniae) (UniProt Q9F663); assay: Activity of KPC-2 in Klebsiella pneumoniae isolate T-1780 assessed as compound hydrolysis in presence of EDTA; design: scale not given: the % may be the effect or the level left
Klebsiella pneumoniae [20] = assay: Antimicrobial activity against Klebsiella pneumoniae isolate H-1406 expressing VIM-1 and KPC-2 genes by microdilution method in presence of beta-lactamase inhibitor Tazobactam; type: functional
Klebsiella pneumoniae [21] = assay: Antimicrobial activity against Klebsiella pneumoniae isolate A-1797 expressing VIM-1 and KPC-2 genes by microdilution method in presence of beta-lactamase inhibitor Tazobactam; type: functional
Klebsiella pneumoniae [22] = assay: Antimicrobial activity against Klebsiella pneumoniae isolate T-1780 expressing VIM-1 and KPC-2 genes by microdilution method in presence of beta-lactamase inhibitor Tazobactam; type: functional
Klebsiella pneumoniae [23] = assay: Antimicrobial activity against Klebsiella pneumoniae isolate A-1760 expressing VIM-1 and KPC-2 genes by microdilution method in presence of beta-lactamase inhibitor Tazobactam; type: functional
Klebsiella pneumoniae [24] = assay: Antimicrobial activity against Klebsiella pneumoniae isolate T-1504 expressing VIM-1 and KPC-2 genes by microdilution method in presence of beta-lactamase inhibitor Tazobactam; type: functional
Klebsiella pneumoniae [25] = assay: Antimicrobial activity against Klebsiella pneumoniae isolate H-1406 expressing VIM-1 and KPC-2 genes by microdilution method in presence of beta-lactamase inhibitor clavulanic acid; type: functional
Klebsiella pneumoniae [26] = assay: Antimicrobial activity against Klebsiella pneumoniae isolate A-1797 expressing VIM-1 and KPC-2 genes by microdilution method in presence of beta-lactamase inhibitor clavulanic acid; type: functional
Klebsiella pneumoniae [27] = assay: Antimicrobial activity against Klebsiella pneumoniae isolate T-1780 expressing VIM-1 and KPC-2 genes by microdilution method in presence of beta-lactamase inhibitor clavulanic acid; type: functional
Klebsiella pneumoniae [28] = assay: Antimicrobial activity against Klebsiella pneumoniae isolate A-1760 expressing VIM-1 and KPC-2 genes by microdilution method in presence of beta-lactamase inhibitor clavulanic acid; type: functional
Klebsiella pneumoniae [29] = assay: Antimicrobial activity against Klebsiella pneumoniae isolate T-1504 expressing VIM-1 and KPC-2 genes by microdilution method in presence of beta-lactamase inhibitor clavulanic acid; type: functional

Row | SMILES | MIC (Klebsiella pneumoniae [1]) | MIC (Klebsiella pneumoniae [2]) | MIC (Klebsiella pneumoniae [3]) | MIC (Klebsiella pneumoniae [4]) | MIC (Klebsiella pneumoniae [5]) | also measured
1 | C[C@@H](O)[C@H]1C(=O)N2C(C(=O)O)=C(S[C@@H]3CN[C@H](C(=O)Nc4cccc(C(=O)O)c4)C3)[C@H](C)[C@H]12 | 64 µg/mL (≈ 135 µM) | 8 µg/mL (≈ 16.8 µM) | > 128 µg/mL | 64 µg/mL (≈ 135 µM) | 32 µg/mL (≈ 67.3 µM) | –
2 | CO/N=C(\C(=O)N[C@@H]1C(=O)N2C(C(=O)[O-])=C(C[N+]3(C)CCCC3)CS[C@H]12)c1csc(N)n1 | 128 µg/mL (≈ 266 µM) | 16 µg/mL (≈ 33.3 µM) | > 256 µg/mL | 256 µg/mL (≈ 533 µM) | 16 µg/mL (≈ 33.3 µM) | –
3 | C[C@H]1[C@H](NC(=O)/C(=N\OC(C)(C)C(=O)O)c2csc(N)n2)C(=O)N1S(=O)(=O)O [AZTREONAM] | 64 µg/mL (≈ 147 µM) | 64 µg/mL (≈ 147 µM) | 64 µg/mL (≈ 147 µM) | 0.12 µg/mL (≈ 0.276 µM) | 32 µg/mL (≈ 73.5 µM) | –
4 | CO/N=C(\C(=O)N[C@@H]1C(=O)N2C(C(=O)O)=C(COC(C)=O)CS[C@H]12)c1csc(N)n1 [CEFOTAXIME] | 256 µg/mL (≈ 562 µM) | > 256 µg/mL | > 256 µg/mL | > 256 µg/mL | 8 µg/mL (≈ 17.6 µM) | –
5 | CC(C)(O/N=C(\C(=O)N[C@@H]1C(=O)N2C(C(=O)[O-])=C(C[n+]3ccccc3)CS[C@H]12)c1csc(N)n1)C(=O)O [CEFTAZIDIME] | > 256 µg/mL | > 256 µg/mL | > 256 µg/mL | > 256 µg/mL | 16 µg/mL (≈ 29.3 µM) | –
6 | C[C@@H](O)[C@H]1C(=O)N2C(C(=O)O)=C(SCCNC=N)C[C@H]12 [IMIPENEM ANHYDROUS] | 32 µg/mL (≈ 107 µM) | 2 µg/mL (≈ 6.68 µM) | 32 µg/mL (≈ 107 µM) | 32 µg/mL (≈ 107 µM) | 2 µg/mL (≈ 6.68 µM) | –
7 | C[C@@H](O)[C@H]1C(=O)N2C(C(=O)O)=C(S[C@@H]3CN[C@H](C(=O)N(C)C)C3)[C@H](C)[C@H]12 [MEROPENEM] | 8 µg/mL (≈ 20.9 µM) | 2 µg/mL (≈ 5.22 µM) | 64 µg/mL (≈ 167 µM) | 64 µg/mL (≈ 167 µM) | – | Activity [6]: 55 U; Activity [7]: 42 U; Activity [8]: 76 U; Activity [9]: 80 U; Activity [10]: 31 U; Activity [11]: 55 U; Activity [12]: 76 U; Activity [13]: 57%; Activity [14]: 80%; Activity [15]: 64%; Activity [16]: 100%; Activity [17]: < 2%; Activity [18]: 57%; Activity [19]: 64%
8 | CCN1CCN(C(=O)N[C@@H](C(=O)N[C@@H]2C(=O)N3[C@@H]2SC(C)(C)[C@@H]3C(=O)O)c2ccccc2)C(=O)C1=O [PIPERACILLIN] | – | – | > 256 µg/mL | – | 128 µg/mL (≈ 247 µM) | MIC (Klebsiella pneumoniae [20]): > 256 µg/mL; MIC (Klebsiella pneumoniae [21]): > 256 µg/mL; MIC (Klebsiella pneumoniae [22]): > 256 µg/mL; MIC (Klebsiella pneumoniae [23]): > 256 µg/mL; MIC (Klebsiella pneumoniae [24]): 64 µg/mL
9 | CC1(C)S[C@@H]2[C@H](NC(=O)[C@H](C(=O)O)c3ccsc3)C(=O)N2[C@H]1C(=O)O [TICARCILLIN] | > 256 µg/mL | – | > 256 µg/mL | – | 256 µg/mL (≈ 666 µM) | MIC (Klebsiella pneumoniae [25]): 256 µg/mL; MIC (Klebsiella pneumoniae [26]): > 256 µg/mL; MIC (Klebsiella pneumoniae [27]): > 256 µg/mL; MIC (Klebsiella pneumoniae [28]): > 256 µg/mL; MIC (Klebsiella pneumoniae [29]): 8 µg/mL
